# Experimental data reported in US8367727B2, “Method of using abscisic acid to treat diseases and disorders” (priority 2006, dated 2013).
# Assays:
# [1] = tested on: PPAR γ and PPAR γ-responsive genes in WAT; experiment: Quantitative real-time RT-PCR of white adipose tissue (WAT) of db/db mice; type: in vivo
# Source text: Complementary DNA (cDNA) concentrations for β-actin, PPAR γ, PPAR α, PPAR δ, adiponectin, CD36, aP2, and TNF-α were examined by real-time quantitative PCR using and iCycler IQ System and the iQ SYBR green supermix (Bio-Rad). SYBR green I is a general double-stranded DNA intercalating dye and, therefore, may detect nonspecific products and primer/dimers in addition to the amplicon of interest. In order to determine the number of products produced during the real-time PCR, a melting curve analysis was performed on each product. Real-time PCR was used to measure the starting amount of nucleic acid of each unknown sample of cDNA on the same 96-well plate. Results are presented as starting quantity of cDNA (picograms) per microgram of mRNA.
# db/db mice = experiment: Liver histology, hepatic steatosis by NASH scoring method; type: in vivo; details: day 36, P<0.02
# Source text: Hepatic and adipose sections were fixed in 10% buffered neutral formalin, embedded in paraffin, cut at thicknesses of 7 microns and later stained with hematoxylin and eosin (H&E) for histological examination of adipocyte hypertrophy and inflammatory lesions. Hepatic sections were scored based on the amount of lipodystrophy observed according to the Nonalcoholic steatohepatitis (NASH) scoring method, with a score of 0 signifying <5% of the cells contain lipid droplets and a score of 4 signifying that >75% of the cells contained lipids and a magnification of 400× (23). The final score was the average of five randomly chosen fields. The area of adipocytes from WAT was analyzed using Sigma Pro® 5.0 software at a magnification of 100×, and macrophage infiltration was determined by averaging the number of macrophages observed in five different fields at 400×.
# [2] = tested on: lymphocytes derived from the spleen; experiment: Anti-CD3-induced proliferation of spleen-derived lymphocytes; type: cell-based; details: ABA-fed mice (controls 30.12)
# [3] = tested on: mesenteric lymph node-derived lymphocytes; experiment: Proliferation and PGE2 production, mesenteric lymph node-derived lymphocytes; type: cell-based, mice
# influenza virus antigens = experiment: Antigen-specific T cell response after immunization with inactivated influenza virus vaccine; type: cell-based; details: ABA-fed mice (controls 5)
# MCP-1 promoter = MCP-1 promoter luciferase reporter in 3T3-L1 pre-adipocytes; type: cell-based
# Method: 3T3-L1 cells (American Type Culture Collection, Manassas, Va.) were grown in 24-well plates in DMEM high glucose medium (Invitrogen, Carlsbad, Calif.) containing 10% fetal bovine serum (FBS) until 60-70% confluence. Before transfection, the medium was changed to 1% FBS. The cells cultured in 24-well plates were co-transfected with 0.8 μg plasmid DNA and 1 ng of pRL reporter control plasmid per well using F-1 transfection reagents (Targeting Systems, Santee, Calif.) according to the manufacturer's protocol. Transfection efficiencies were determined by cotransfecting the cells with a pcDNA™ 3.1/His/lacZ control vector at 24 h. The transfected cells were then treated with either a racemic ABA mixture (12.5 μM; Sigma) or rosiglitazone (1 μM; Cayman Chemicals, Ann Arbor, Mich.) for 24 hours. Designated wells were also treated with the PPAR γ antagonist GW9662 (30 μM; Cayman Chemicals). Transfected cells were harvested in reporter lysis reagent. Luciferase activity, normalized to pRL activity in the cell extracts was determined by using the dual luciferase reporter assay system (Promega, Madison, Wis.) in a TD-20/20 Single-Tube Luminometer (Turner Biosystems, Sunnyvale, Calif.). Relative luciferase activity (RLA) was calculated as a ratio of the chemiluminescence 10 seconds after the Luciferase Assay Reagent II (Promega) was added over the chemiluminescence 10 seconds after the Stop&Glo Reagent (Promega).
# To further examine the effect of ABA on MCP-1 transactivation, 3T3-L1 preadipocytes were transfected with a MCP-1 promoter luciferase reporter construct and also cotransfected with a pCMX PPAR γ expression plasmid to increase endogenous PPAR γ activity. Cells were then treated with ABA (12.5 μM), rosiglitazone (1 μM), the PPAR γ antagonist GW9662 (30 μM), or a combination of agonist and inhibitor.
# [4] = tested on: dextran sodium sulfate (DSS)-induced colitis; experiment: DSS-induced colitis in C57BL/6J mice: disease activity, macroscopic scores, histopathology; type: in vivo
# Method: Six to eight week old C57BL/6J mice (n=20) and were housed at the animal facilities at Virginia Polytechnic Institute and State University in a room maintained at 75° F., with a 12:12 h light-dark cycle starting from 6:00 AM. All experimental procedures were approved by the Institutional Animal Care and Use Committee of Virginia Polytechnic Institute and State University and met or exceeded requirements of the Public Health Service/National Institutes of Health and the Animal Welfare Act. C57BL/6J mice were fed AIN-93G-based diets with or without 100 mg/kg of a racemic ABA mixture for 35 days prior to induction of colitis with water containing 2.5% dextran sodium sulfate (DSS), […] (ICN Biomedicals, Aurora, Ohio). After the DSS challenge mice were weighed on a daily basis and examined for clinical signs of disease associated with colitis (i.e., perianal soiling, rectal bleeding, diarrhea, and piloerection). For the DSS challenge, the disease activity indices and rectal bleeding scores were calculated using a modification of a previously published compounded clinical score (50). Briefly, the disease activity index consisted of a scoring for diarrhea and lethargy (0-3), whereas rectal bleeding consisted of a visual observation of blood in feces and the perianal area (0-4). Mice in the DSS study were euthanized on day 7 of the DSS challenge. On day 7 blood mice were euthanized by CO2 asphyxiation and blood was withdrawn from the heart. Spleen and mesenteric lymph nodes (MLN) were scored based on size and macroscopic inflammatory lesions (0-3), excised, and then crushed to produce single-cell suspensions for flow cytometry.
# Colonic sections were fixed in 10% buffered neutral formalin, later embedded in paraffin, and then sectioned (5 μm) and stained with H&E stain for histologic examination. Colons were graded with a compounded histologic score including the extent of (1) lymphocyte infiltration, (2) mucosal thickening, and (3) epithelial cell erosion. The sections were graded with a score of 0-4 for each of the previous categories and data were analyzed as a normalized compounded score.
# [5] = tested on: immune cell populations in blood and MLN; experiment: Immunophenotyping of blood and mesenteric lymph nodes by flow cytometry after DSS challenge; type: in vivo, mice
# Method: MLNs were excised and crushed with frosted slides, washed with PBS, and resuspended in PBS and enumerated with a Coulter Counter (Beckman Coulter, Fullerton, Calif.). MLN-derived cells (2×10^5 cells/well) or whole blood (10 μL/well) were seeded onto 96-well plates, centrifuged at 4° C. at 3000 rpm for 4 minutes, and washed with PBS containing 5% serum and 0.09% sodium azide (FACS buffer). […] For lymphocyte assessment, cells were incubated with anti-CD4-Alexa Fluor 700 (2 μg/mL; BD Pharmingen), anti-CD8-PerCp-Cy5.5 (2 μg/mL, eBioscience), CD3 PE-Cy5 (2 μg/mL; BD Pharmingen), anti-CD25-FITC (BD), anti-CTLA-4 FITC (BD), or anti-FoxP3-PE (2 μg/mL, eBioscience) as previously shown (77). Flow results were computed with a BD LSR II flow cytometer and data analyses was performed with FACS Diva software (BD).
# [6] = all studies conducted with ABA; cited from earlier work
# [7] = 100 mg ABA/kg diet, 36 days, P<0.01
compound,measurement,setting,value
"CC1=CC(=O)CC(C)(C)C1(O)/C=C/C(C)=C\C(=O)O (racemic) [ABA, abscisic acid]",mRNA expression of PPAR α or PPAR δ,"[1]; 100 mg ABA/kg diet, 36 days",no significant differences
same,WAT expression of CD36 mRNA,[1]; [7],significant increase
same,WAT expression of PPAR γ mRNA,[1]; [7],significant increase
same,WAT expression of aP2 mRNA,"[1]; 100 mg ABA/kg diet, 36 days, P<0.02",significant increase
same,WAT expression of adiponectin mRNA,"[1]; 100 mg ABA/kg diet, 36 days, P<0.05",significant increase
same,TNF-α mRNA expression in WAT,"[1]; ABA-fed db/db mice, P<0.05",down-regulated
same,hepatic steatosis (NASH scoring),db/db mice,significantly mitigated
same,"stimulation index, anti-CD3-induced proliferation",[2],8.55
same,prostaglandin E2 (PGE2) production,[3]; ABA feeding,decreased
same,augmentation of proliferation of mesenteric lymph node-derived lymphocytes,[3]; following ABA feeding,10 fold
same,production of interleukin-2 (IL-2),influenza virus antigens,31.67 picograms IL-2/ml of cell supernatant
same,MCP-1 promoter activity,"MCP-1 promoter; ABA 12.5 μM, rosiglitazone 1 μM, co-transfection with PPAR γ expression vector",significantly enhanced the ability of both ABA and rosiglitazone to inhibit MCP-1 promoter activity
same,effects on MCP-1 transactivation under cotreatment with antagonist,MCP-1 promoter; plus GW9662 30 μM,significantly inhibited by cotreatment with GW9662
same,disease activity index (DAI),"[4]; 100 mg/kg diet 35 days, then 7 days 2.5% DSS",significantly reduced disease activity index
same,body weight loss,"[4]; DSS challenge, ABA vs control",no significant differences in body weight loss
same,Epithelial erosion,"[4]; colon histology, DSS colitis",significantly reduced
same,leukocyte infiltration,"[4]; colon histology, DSS colitis",significantly reduced
same,mucosal thickening,"[4]; colon histology, DSS colitis",significantly reduced
same,"colonic inflammation, macroscopic score",[4]; day 7 of DSS,significantly reduced colonic inflammation
same,spleen or MLN macroscopic score,[4]; day 7 of DSS,no significant effect on the spleen or MLN
same,CTLA-4 expression on CD4+ T cells in blood,[5]; ABA-fed wild-type mice,significantly increased
same,percent of CD4+CD25+FoxP3+ regulatory T cells,[5]; MLN,significantly increased
same,effect on F4/80+CD11b+ monocytes,[5]; PPAR γ-deficient (CD4cre) mice,absent
same,increase of CTLA-4 expression on CD4+ T cells in blood,[5]; lack of PPAR γ (CD4cre mice),abrogated
same,F4/80+CD11b+ monocytes,"[5]; wt mice, blood",significantly decreased
same,side-effects,[6],no side-effects observed
